Results reported in ChEMBL document CHEMBL3091429, “Structure-activity relationships of retro-dihydrochalcones isolated from Tacca sp” (J Nat Prod, 2013).
Calls of active or inactive are those of the source. The calls are words filed in the database; no cut-off is given here.

How the values were obtained:
[1] = target: Tubulin (Sus scrofa) (UniProt P02554+P02550); assay: Inhibition of purified porcine tubulin polymerization 100 uM by spectrophotometry; format: protein assay
[2] = test system: PC-3; assay: Antiproliferative activity against human PC3 cells by SRB assay; format: functional, cell-based
[3] = test system: A549; assay: Antiproliferative activity against human A549 cells by SRB assay; format: functional, cell-based
[4] = test system: HeLa; assay: Antiproliferative activity against human HeLa cells by SRB assay; format: functional, cell-based

Sequence of Tubulin (Sus scrofa) (P02550 whole entry, looked up): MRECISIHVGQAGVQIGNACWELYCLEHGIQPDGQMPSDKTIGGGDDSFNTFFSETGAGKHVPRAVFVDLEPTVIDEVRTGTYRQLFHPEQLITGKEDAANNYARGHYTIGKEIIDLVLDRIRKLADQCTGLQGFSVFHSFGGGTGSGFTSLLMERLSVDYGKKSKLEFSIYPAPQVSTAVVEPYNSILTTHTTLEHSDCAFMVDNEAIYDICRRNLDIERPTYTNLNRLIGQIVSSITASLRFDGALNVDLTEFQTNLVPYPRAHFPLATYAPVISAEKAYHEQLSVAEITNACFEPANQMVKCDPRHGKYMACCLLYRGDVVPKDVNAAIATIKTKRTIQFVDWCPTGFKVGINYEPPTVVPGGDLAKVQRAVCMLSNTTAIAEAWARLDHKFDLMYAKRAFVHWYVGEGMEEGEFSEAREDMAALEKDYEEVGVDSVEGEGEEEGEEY
Sequence of Tubulin (Sus scrofa) (P02554 whole entry, looked up): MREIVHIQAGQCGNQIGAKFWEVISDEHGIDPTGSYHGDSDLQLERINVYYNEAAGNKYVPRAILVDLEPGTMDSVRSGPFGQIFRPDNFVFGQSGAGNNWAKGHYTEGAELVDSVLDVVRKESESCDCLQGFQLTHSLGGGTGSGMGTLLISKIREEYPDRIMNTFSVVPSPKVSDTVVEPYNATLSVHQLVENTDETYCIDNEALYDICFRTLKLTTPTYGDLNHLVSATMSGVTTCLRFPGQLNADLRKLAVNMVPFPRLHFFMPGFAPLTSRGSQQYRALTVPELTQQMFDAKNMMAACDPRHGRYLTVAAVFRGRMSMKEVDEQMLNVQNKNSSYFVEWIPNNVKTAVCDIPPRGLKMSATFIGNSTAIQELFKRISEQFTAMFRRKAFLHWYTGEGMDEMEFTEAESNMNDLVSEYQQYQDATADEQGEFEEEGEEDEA

SMILES | inhibition [1] | IC50 [2] [µM] | IC50 [3] [µM] | IC50 [4] [µM]
COc1cc(OC)c(CCC(=O)c2ccc(O)c(OC)c2)c(OC)c1 | 10% | > 50 | 40.3 | 28.9
COc1cc(O)c(CCC(=O)c2ccc(O)c(OC)c2)c(OC)c1 | Active | > 50 | > 50 | > 50
COC1=CC(=O)C(CCC(=O)c2ccc(OC)c(OC)c2)=C(OC)C1=O | inactive |  |  | 
COc1cc(OC)c(CCC(O)c2ccc3c(c2)OCO3)c(OC)c1 (configuration not stated) | Active | > 50 | > 50 | > 50
COc1cc(OC)c(CCC(=O)c2ccc(OC)c(O)c2)c(OC)c1 | Active |  |  | 
COc1ccc(C(=O)CCc2c(OC)cc(OC)c(OC)c2OC)cc1OC | inactive | > 50 | > 50 | > 50
COC1=CC(=O)C(CCC(=O)c2ccc3c(c2)OCO3)=C(OC)C1=O | 40% | 5 | 8.3 | 8.8
